The values below come from US8420675B2, “Aminotetrahydroindazoloacetic acids” (Hoffmann-La Roche Inc., priority 2008, dated 2013).

pIC50: −log10 of the molar value.

The target of this assay is T1, human CRTH2 (Homo sapiens, UniProt Q9Y5Y4).
T1 construct: expressed in transfected cells
T1 sequence (Q9Y5Y4 1-395): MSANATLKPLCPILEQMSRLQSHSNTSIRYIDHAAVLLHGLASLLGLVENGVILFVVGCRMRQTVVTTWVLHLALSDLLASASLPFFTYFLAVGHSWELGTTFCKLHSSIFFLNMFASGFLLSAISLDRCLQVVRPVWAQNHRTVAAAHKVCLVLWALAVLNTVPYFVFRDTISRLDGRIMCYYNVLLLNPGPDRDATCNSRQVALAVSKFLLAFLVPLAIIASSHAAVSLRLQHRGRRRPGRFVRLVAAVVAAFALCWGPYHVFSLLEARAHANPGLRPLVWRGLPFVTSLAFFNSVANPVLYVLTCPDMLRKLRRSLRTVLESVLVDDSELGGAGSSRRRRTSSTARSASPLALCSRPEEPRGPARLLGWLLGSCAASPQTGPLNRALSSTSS
Kind of assay: Human CRTH2 Receptor Binding Assay (whole cell, [3H]ramatroban competition). The note with it: CHO-K1 cells expressing human CRTH2 and G-alpha16; 20 nM [3H]ramatroban; 1 hour, room temperature. The text has this: A whole cell receptor binding assay using [^3H]ramatroban as the competing radioactive ligand was employed to evaluate the compound binding activity to human CRTH2. The radioactive ligand [^3H]ramatroban was synthesized according to Sugimoto et. al. (Eur. J. Pharmacol. 524, 30-37, 2005) to a specific activity of 42 Ci/mmol.
A cell line stably expressing human CRTH2 was established by transfecting CHO-K1 cells with two mammalian expression vectors that harbored human CRTH2 and G-alpha16 cDNAs, respectively, using FuGene® 6 transfection reagent (from Roche). Stable clones expressing CRTH2 were selected by staining each clone with BM16 (BD Pharmingen™ from BD Biosciences, a division of Becton, Dickinson and Company), which is a rat monoclonal antibody to human CRTH2. The cells were maintained as monolayer cultures in Ham's F-12 medium containing 10% fetal bovine serum, 100 units/mL penicillin, 100 μg/mL streptomycin, 2 mM glutamine, 0.5 mg/mL G418 (geneticin) for CRTH2, and 0.2 mg/mL hygromycin-B (for G-alpha 16). For whole cell receptor binding assay, the monolayer cells were rinsed once with PBS (phosphate buffered saline), dissociated using ethylenediaminetetraacetate (Versene™ EDTA Lonza Inc.), and suspended in PBS containing 10 mM MgCl2 and 0.06% BSA (bovine serum albumin) at 1.5×10^6 cells/mL.
The binding reactions (0.2 mL) were performed in 96-well plates at room temperature in PBS containing 1.5×10^5 cells, 10 mM MgCl2, 0.06% BSA, 20 nM [^3H]ramatroban, and test compound at various concentrations. After 1 hour of binding reactions, the cells were harvested on GF™/B filter microplates (microtiter plates with embedded glass fiber from PerkinElmer, Inc.) and washed 5 times with PBS using a Filtermate™ Harvester (a cell harvester that harvests and washes cells from microplates from PerkinElmer, Inc.). The radioactivities bound to the cells were determined using a microplate scintillation counter (TopCount® NXT, from PerkinElmer, Inc.) after adding 50 μL of Microscint™ 20 scintillation fluid (from PerkinElmer, Inc.) to each well of the filter plates. The radioactivity from non-specific binding was determined by replacing compound with 10 μM of 15(R)-15-methyl PGD2 (from Cayman Chemical Company) in the reaction mixtures. The radioactivity bound to the cells in the absence of compound (total binding) was determined by replacing compound with 0.25% of DMSO (dimethyl sulfoxide) in the reaction mixture. Specific binding data were obtained by subtracting the radioactivity of non-specific binding from each binding data.
The IC50 value is defined as the concentration of the tested compound that is required for 50% inhibition of total specific binding. In order to calculate the IC50 value, the percent inhibition data were determined for 7 concentrations for each compound. The percent inhibition for a compound at each concentration was calculated according to the following formula, [1-(specific binding in the presence of compound)/(total specific binding)]x100. The IC50 value was then obtained by fitting the percent inhibition data to a sigmoidal dose-response (4 parameter logistic) model in the XLfit® software Excel add-in program [from ID Business Solutions Ltd., model 205, where F(x)=(A+(B−A)/(1+((C/x)^D)))].

By pIC50 is commonly meant the IC50 on a negative log10 scale, so that one unit is a factor of ten. Low readings indicate a high IC50, high ones a low IC50. As for `O=C(O)Cn1ncc2c1CCCC2NS(=O)(=O)c1cnc(Oc2ccc(Cl)cc2)c(Br)c1` (centres unmarked) [Example 2-1a, {4-[5-Bromo-6-(4-chloro-phenoxy)-pyridine-3-sulfonylamino]-4,5,6,7-tetrahydro-indazol-1-yl}-acetic acid], the pIC50 was 8.14.
The same measure for `COc1ccc(S(=O)(=O)c2cc(C(F)(F)F)cc(S(=O)(=O)N(C)[C@@H]3CCCc4c3cnn4CCC(=O)O)c2)cc1` [Example 13-5a, 3-((R)-4-{[3-(4-Methoxy-benzenesulfonyl)-5-trifluoromethyl-benzenesulfonyl]-methyl-amino}-4,5,6,7-tetrahydro-indazol-1-yl)-propionic acid]: 8.24.
For the compound `O=C(O)Cn1ncc2c1CCC[C@H]2NS(=O)(=O)c1ccc(-c2cccc(C(F)(F)F)c2)cc1` [Example 10-25a, [(R)-4-(3′-Trifluoromethyl-biphenyl-4-sulfonylamino)-4,5,6,7-tetrahydro-indazol-1-yl]-acetic acid], the negative logarithm of the IC50 (pIC50) was 7.88.
The same measure for `O=C(O)Cn1ncc2c1CCCC2NS(=O)(=O)c1cccc(NS(=O)(=O)c2ccccc2)c1` (centres unmarked) [Example 15-1a, [4-(3-Benzenesulfonylamino-benzenesulfonylamino)-4,5,6,7-tetrahydro-indazol-1-yl]-acetic acid]: 6.44; for `CN([C@@H]1CCCc2c1cnn2CC(=O)O)S(=O)(=O)c1ccc(Oc2ccccc2Cl)cc1Cl` [Example 9-10a, ((R)-4-{[2-Chloro-4-(2-chloro-phenoxy)-benzenesulfonyl]-methyl-amino}-4,5,6,7-tetrahydro-indazol-1-yl)-acetic acid]: 7.01; for `O=C(O)CCn1ncc2c1CCC[C@H]2NS(=O)(=O)c1ccc(-c2cccc(C(F)(F)F)c2)cc1` [Example 10-31a, 3-[(R)-4-(3′-Trifluoromethyl-biphenyl-4-sulfonylamino)-4,5,6,7-tetrahydro-indazol-1-yl]-propionic acid]: 8.25.
The same measure for `O=C(O)Cn1ncc2c1CCCC2NS(=O)(=O)c1cccc(NC(=O)c2ccccc2)c1` (centres unmarked) [Example 14-1a, [4-(3-Benzoylamino-benzenesulfonylamino)-4,5,6,7-tetrahydro-indazol-1-yl]-acetic acid]: 6.45; for `CS(=O)(=O)c1cccc(-c2ccc(S(=O)(=O)N[C@@H]3CCCc4c3cnn4CC(=O)O)cc2)c1` [Example 10-28a, [(R)-4-(3′-Methanesulfonyl-biphenyl-4-sulfonylamino)-4,5,6,7-tetrahydro-indazol-1-yl]-acetic acid]: 8.18; for `CN([C@@H]1CCCc2c1cnn2CC(=O)O)S(=O)(=O)c1cnc(Oc2ccc(Cl)cc2F)c(Br)c1` [Example 6-9a, ((R)-4-{[5-Bromo-6-(4-chloro-2-fluoro-phenoxy)-pyridine-3-sulfonyl]-methyl-amino}-4,5,6,7-tetrahydro-indazol-1-yl)-acetic acid]: 8.15.
As to `O=C(O)Cn1ncc2c1CCCC2NS(=O)(=O)c1cc(-c2ccccc2)cc(C(F)(F)F)c1` (centres unmarked) [Example 10-16a, [4-(5-Trifluoromethyl-biphenyl-3-sulfonylamino)-4,5,6,7-tetrahydro-indazol-1-yl]-acetic acid], the pIC50 is 7.18.
The same measure for `O=C(O)Cn1ncc2c1CCCC2NS(=O)(=O)c1cnc(Oc2ccc(F)c(F)c2)c(Br)c1` (centres unmarked) [Example 2-10a, {4-[5-Bromo-6-(3,4-difluoro-phenoxy)-pyridine-3-sulfonylamino]-4,5,6,7-tetrahydro-indazol-1-yl}-acetic acid]: 6.71; for `CN([C@@H]1CCCc2c1cnn2CC(=O)O)S(=O)(=O)c1cc(F)c(Oc2ccc(F)cc2)cc1Cl` [Example 9-29a, ((R)-4-{[2-Chloro-5-fluoro-4-(4-fluoro-phenoxy)-benzenesulfonyl]-methyl-amino}-4,5,6,7-tetrahydro-indazol-1-yl)-acetic acid]: 6.82; for `CN([C@@H]1CCCc2c1cnn2CC(=O)O)S(=O)(=O)c1cc(Oc2ccc(F)cc2)cc(C(F)(F)F)c1` [Example 9-42a, ((R)-4-{[3-(4-Fluoro-phenoxy)-5-trifluoromethyl-benzenesulfonyl]-methyl-amino}-4,5,6,7-tetrahydro-indazol-1-yl)-acetic acid]: 7.65.
`CN([C@@H]1CCCc2c1cnn2CC(=O)O)S(=O)(=O)c1cnc(Oc2cccc(Cl)c2)c(Br)c1` [Example 6-8a, ((R)-4-{[5-Bromo-6-(3-chloro-phenoxy)-pyridine-3-sulfonyl]-methyl-amino}-4,5,6,7-tetrahydro-indazol-1-yl)-acetic acid] had a pIC50 of 7.92.
To `O=C(O)Cn1ncc2c1CCCC2NS(=O)(=O)c1cccc(-c2ccccc2Cl)c1` (centres unmarked) [Example 10-12a, [4-(2′-Chloro-biphenyl-3-sulfonylamino)-4,5,6,7-tetrahydro-indazol-1-yl]-acetic acid] belongs 6.51; to `COc1cc(F)ccc1Oc1ncc(S(=O)(=O)N(C)[C@@H]2CCCc3c2cnn3CC(=O)O)cc1Br` [Example 6-13a, ((R)-4-{[5-Bromo-6-(4-fluoro-2-methoxy-phenoxy)-pyridine-3-sulfonyl]-methyl-amino}-4,5,6,7-tetrahydro-indazol-1-yl)-acetic acid], 8.19; to `COc1cc(Cl)ccc1Oc1ccc(S(=O)(=O)N(C)[C@@H]2CCCc3c2cnn3CC(=O)O)cc1Cl` [Example 9-20a, ((R)-4-{[3-Chloro-4-(4-chloro-2-methoxy-phenoxy)-benzenesulfonyl]-methyl-amino}-4,5,6,7-tetrahydro-indazol-1-yl)-acetic acid], 7.99.
The same measure for `CN([C@@H]1CCCc2c1cnn2CC(=O)O)S(=O)(=O)c1cnc(Oc2ccc(F)cc2F)c(Br)c1` [Example 6-7a, ((R)-4-{[5-Bromo-6-(2,4-difluoro-phenoxy)-pyridine-3-sulfonyl]-methyl-amino}-4,5,6,7-tetrahydro-indazol-1-yl)-acetic acid]: 8.21; for `N#Cc1ccc(Oc2ncc(S(=O)(=O)NC3CCCc4c3cnn4CC(=O)O)cc2Br)cc1` (centres unmarked) [Example 2-4a, {4-[5-Bromo-6-(4-cyano-phenoxy)-pyridine-3-sulfonylamino]-4,5,6,7-tetrahydro-indazol-1-yl}-acetic acid]: 7.99.
In turn, `CN([C@@H]1CCCc2c1cnn2CC(=O)O)S(=O)(=O)c1ccc(Oc2ccc(F)cc2)c(Br)c1` [Example 9-40a, ((R)-4-{[3-Bromo-4-(4-fluoro-phenoxy)-benzenesulfonyl]-methyl-amino}-4,5,6,7-tetrahydro-indazol-1-yl)-acetic acid] showed a pIC50 of 8.10.
The same measure for `CN([C@@H]1CCCc2c1cnn2CC(=O)O)S(=O)(=O)c1cnc(Oc2ccc(F)cc2Cl)c(Br)c1` [Example 6-6a, ((R)-4-{[5-Bromo-6-(2-chloro-4-fluoro-phenoxy)-pyridine-3-sulfonyl]-methyl-amino}-4,5,6,7-tetrahydro-indazol-1-yl)-acetic acid]: 8.17; for `O=C(O)Cn1ncc2c1CCCC2NS(=O)(=O)c1cc(Oc2ccccc2)cc(C(F)(F)F)c1` (centres unmarked) [Example 5-4a, [4-(3-Phenoxy-5-trifluoromethyl-benzenesulfonylamino)-4,5,6,7-tetrahydro-indazol-1-yl]-acetic acid]: 7.44.
`CN([C@@H]1CCCc2c1cnn2CC(=O)O)S(=O)(=O)c1ccc(Oc2ccccc2)c(Cl)c1` [Example 9-13a, {(R)-4-[(3-Chloro-4-phenoxy-benzenesulfonyl)-methyl-amino]-4,5,6,7-tetrahydro-indazol-1-yl}-acetic acid] gave a pIC50 of 8.02.
